Assay results: patent US7902354B2, “Lapachone compounds and methods of use thereof” (ArQule, Inc., priority 2006, dated 2011)
Read-outs that look alike come from different tables or passages of the source.

What was measured:
Type in all cases: cell-based
[1] = tested on: NCM-460 normal colon epithelial cells; test: MTS cell viability assay, NCM-460 normal colon epithelial cells; settings: for IC50: Homo sapiens, read-out: IC50 Values, Normal Cells, Colon NCM-460
[2] = tested on: PACA-2 human pancreatic carcinoma cells; test: MTS cell viability assay, PACA-2 human pancreatic carcinoma cells; settings: read-out: IC50 Values, Cancerous Cells, Pancreas PACA-2
[3] = tested on: A549 human lung carcinoma cells; test: MTS cell viability assay, A549 human lung carcinoma cells; settings: read-out: IC50 Values, Cancerous Cells, Lung A549
[4] = tested on: DLD-1 human colon carcinoma cells; test: MTS cell viability assay, DLD-1 human colon carcinoma cells; settings: read-out: IC50 Values, Cancerous Cells, Colon DLD-1
[5] = tested on: DU-145 human prostate carcinoma cells; test: MTS cell viability assay, DU-145 human prostate carcinoma cells; settings: read-out: IC50 Values, Cancerous Cells, Prostate DU-145
[6] = tested on: K-562 human leukemia cells; test: MTS cell viability assay, K-562 human leukemia cells; settings: read-out: IC50 Values, Cancerous Cells, Leukemia K-562
[7] = NCM460, NCM-460, 4 h compound incubation, MTS
[8] = PACA-2, 4 h compound incubation, MTS
[9] = A549, 4 h compound incubation, MTS
[10] = DLD-1, 4 h compound incubation, MTS
[11] = DU-145, 4 h compound incubation, MTS
[12] = K562, K-562, 4 h compound incubation, MTS

SMILES | IC50 [2, 8] | IC50 [3, 9] | IC50 [4, 10] | IC50 [5, 11] | IC50 [6, 12] | IC50 [1, 7] | Fold Selectivity (NCM-460/DLD1) ([1]; ratio of IC50 NCM-460 / DLD1) | Fold Selectivity (NCM-460/DLD1) [1] | IC50 ([1]; NCM460, 4 h) | IC50 ([2]; PaCa-2, 4 h) | IC50 ([3]; A549, 4 h) | IC50 ([4]; DLD-1, 4 h) | IC50 ([5]; DU-145, 4 h) | IC50 ([6]; K562, 4 h)
CCCCC(CC)COC(=O)N1CCC2(CC1)CSC1=C(O2)c2ccccc2C(=O)C1=O (stereo not drawn) [Compound 95, 2-ethylhexyl 5,6-dioxo-5,6-dihydro-1′H-spiro[naphtho[1,2-b][1,4]oxathiine-2,4′-piperidine]-1′-carboxylate] | 4.72 µM | 51.4 µM | 10.9 µM | 5.13 µM | 12.3 µM | 37.7 µM | 3.5 |  |  |  |  |  |  | 
Cc1ccc(OC(=O)N2CCC3(CC2)CSC2=C(O3)c3ccccc3C(=O)C2=O)cn1 [Compound 111, 6-methyllpyridin-3-yl 5,6-dioxo-5,6-dihydro-1′H-spiro[naphtho[1,2-b][1,4]oxathiine-2,4′-piperidine]-1′-carboxylate] |  |  |  |  |  |  |  | 3.1 | 4.78 µM | 1.7 µM | 4.63 µM | 1.52 µM | 4.1 µM | 2.01 µM
Cc1ccc(CN2CCC3(CC2)CSC2=C(O3)c3ccccc3C(=O)C2=O)cc1 [Compound 120, 1′-(4-methylbenzyl)spiro[naphtho[1,2-b][1,4]oxathiine-2,4′-piperidine]-5,6-dione] | 4.35 µM | 9.04 µM | 4.23 µM | 9.27 µM | 5.47 µM | 10.4 µM | 2.5 |  |  |  |  |  |  | 
N#Cc1ccc(CN2CCC3(CC2)CSC2=C(O3)c3ccccc3C(=O)C2=O)cc1 [Compound 123, 4-[(5,6-dioxo-5,6-dihydro-1′H-spiro[naphtho[1,2-b][1,4]oxathiine-2,4′-piperidine]-1′-yl)methyl]benzonitrile] | 4.18 µM | 36.8 µM | 4.37 µM | 4.32 µM | 4.09 µM | 9.96 µM | 2.3 |  |  |  |  |  |  | 
CCCCCCCCCCN1CCC2(CC1)CSC1=C(O2)c2ccccc2C(=O)C1=O [Compound 128, 1′-decylspiro[naphtho[1,2-b][1,4]oxathiine-2,4′-piperidine]-5,6-dione] | 9.22 µM | 42.8 µM | 16.9 µM | 7.41 µM | 21 µM | 40.8 µM | 2.4 |  |  |  |  |  |  | 
Cc1cccc(CN2CCC3(CC2)CSC2=C(O3)c3ccccc3C(=O)C2=O)c1 [Compound 133, 1′-(3-methylbenzyl)spiro[naphtho[1,2-b][1,4]oxathiine-2,4′-piperidine]-5,6-dione] | 12.5 µM | 73 µM | 13.1 µM | 12.9 µM | 15 µM | 29.6 µM | 2.3 |  |  |  |  |  |  | 
CC(C(=O)Nc1ccccc1)N1CCC2(CC1)CSC1=C(O2)c2ccccc2C(=O)C1=O (stereo not drawn) [Compound 134, 2-(5,6-dioxo-5,6-dihydro-1′H-spiro[naphtho[1,2-b][1,4]oxathiine-2,4′-piperidin]-1′-yl)-N-phenylpropanamide] | 4.43 µM | 23.3 µM | 3.94 µM | 6.87 µM | 7.22 µM | 15.6 µM | 4.0 |  |  |  |  |  |  | 
O=C1C(=O)c2ccccc2C2=C1SCC1(CCN(C3C=CCCC3)CC1)O2 (stereo not drawn) [Compound 135, 1′-cyclohex-2-en-1-ylspiro[naphtho[1,2-b][1,4]oxathiine-2,4′-piperidine]-5,6-dione] | 7.42 µM | 19.2 µM | 4.89 µM | 5.07 µM | 4.02 µM | 8.35 µM | 1.7 |  |  |  |  |  |  | 
O=C1C(=O)c2ccccc2C2=C1SCC1(CCN(CC3CCCCC3)CC1)O2 [Compound 136, 1′-(cyclohexylmethyl)spiro[naphtho[1,2-b][1,4]oxathiine-2,4′-piperidine]-5,6-dione] | 4.13 µM | 9.6 µM | 2.95 µM | 4.32 µM | 4.34 µM | 8.7 µM | 2.9 |  |  |  |  |  |  | 

Further molecules by falling IC50 [2, 8], results first:

IC50 [2, 8] | IC50 [3, 9] | IC50 [4, 10] | IC50 [5, 11] | IC50 [6, 12] | SMILES | IC50 [1, 7] | Fold Selectivity (NCM-460/DLD1) ([1]; ratio of IC50 NCM-460 / DLD1) | Fold Selectivity (NCM-460/DLD1) [1] | IC50 ([1]; NCM460, 4 h) | IC50 ([2]; PaCa-2, 4 h) | IC50 ([3]; A549, 4 h) | IC50 ([4]; DLD-1, 4 h) | IC50 ([5]; DU-145, 4 h) | IC50 ([6]; K562, 4 h)
4.12 µM | 8.27 µM | 4.08 µM | 4.32 µM | 4.25 µM | CC(c1ccccc1)N1CCC2(CC1)CSC1=C(O2)c2ccccc2C(=O)C1=O (stereo not drawn) [Compound 137, 1′-(1-phenylethyl)spiro[naphtho[12-b][1,4]oxathiine-2,4′-piperidine]-5,6-dione] | 10 µM | 2.5 |  |  |  |  |  |  | 
3.71 µM | 9.42 µM | 3.98 µM | 5.48 µM | 4.03 µM | COc1cccc(CN2CCC3(CC2)CSC2=C(O3)c3ccccc3C(=O)C2=O)c1 [Compound 121, 1′-(3-methoxybenzyl)spiro[naphtho[1,2-b][1,4]oxathiine-2,4′-piperidine]5,6-dione] | 11 µM | 2.8 |  |  |  |  |  |  | 
2.81 µM | 8.52 µM | 2.41 µM | 3.69 µM | 2.49 µM | C=COC(=O)N1CCC2(CC1)CSC1=C(O2)c2ccccc2C(=O)C1=O [Compound 94, vinyl 5,6-dioxo-5,6-dihydro-1′H-spiro[naphtho[1,2-b][1,4]oxathiine-2,4′-piperidine]-1′-carboxylate] | 9.48 µM | 3.9 |  |  |  |  |  |  | 
2.74 µM | 7.4 µM | 1.57 µM | 4.58 µM | 3.84 µM | O=C1C(=O)c2ccccc2C2=C1SCC1(CCN(Cc3ccccc3)CC1)O2 [Compound 130, 1′-benzylspiro[naphtho[1,2-b][1,4]oxathiine-2,4′-piperidine]-5,6-dione] | 10.2 µM | 6.5 |  |  |  |  |  |  | 
2.27 µM | 10.1 µM | 2.42 µM | 5.02 µM | 3.85 µM | O=C1C(=O)c2ccccc2C2=C1SCC1(CCN(Cc3ccccc3F)CC1)O2 [Compound 118, 1′-(2-fluorobenzyl)spiro[naphtho[1,2-b][1,4]oxathiine-2,4′-piperidine]-5,6-dione] | 8.3 µM | 3.4 |  |  |  |  |  |  | 
1.94 µM | 6.62 µM | 1.53 µM | 4.05 µM | 2.86 µM | CC(C)CCN1CCC2(CC1)CSC1=C(O2)c2ccccc2C(=O)C1=O [Compound 132, 1′-(3-methylbutyl)spiro[naphtho[1,2-b][1,4]oxathiine-2,4′-piperidine]-5,6-dione] | 9.74 µM | 6.4 |  |  |  |  |  |  | 
1.83 µM | 11.2 µM | 1.54 µM | 3.99 µM | 2.97 µM | O=C1C(=O)c2ccccc2C2=C1SCC1(CCN(C(=O)Oc3ccccn3)CC1)O2 [Compound 112, pyridin-2-yl 5,6-dioxo-5,6-dihydro-1′H-spiro[naphtho[1,2-b][1,4]oxathiine-2,4′-piperidine]-1′-carboxylate] | 6.3 µM | 4.1 |  |  |  |  |  |  | 
1.61 µM | 7.3 µM | 3.11 µM | 3.98 µM | 1.43 µM | O=C1C(=O)c2ccccc2C2=C1SCC1(CCN(C(=O)OCc3ccccc3)CC1)O2 [Compound 98, benzyl 5,6-dioxo-5,6-dihydro-1′H-spiro[naphtho[1,2-b][1,4]oxathiine-2,4′-piperidine]-1′-carboxylate] | 4.78 µM | 1.5 |  |  |  |  |  |  | 
1.44 µM | 5 µM | 3.12 µM | 4.05 µM | 1.63 µM | CC(C)CN1CCC2(CC1)CSC1=C(O2)c2ccccc2C(=O)C1=O [Compound 126, 1′-isobutylspiro[naphtho[1,2-b][1,4]oxathiine-2,4′-piperidine]-5,6-dione] | 5.26 µM | 1.7 |  |  |  |  |  |  | 
1.44 µM | 6.9 µM | 1.46 µM | 2.7 µM | 1.39 µM | C=CCN1CCC2(CC1)CSC1=C(O2)c2ccccc2C(=O)C1=O [Compound 131, 1′-allylspiro[naphtho[1,2-b][1,4]oxathiine-2,4′-piperidine]-5,6-dione] | 2.95 µM | 2.0 |  |  |  |  |  |  | 
1.32 µM | 8 µM | 1.13 µM | 1.39 µM | 1.37 µM | O=C1C(=O)c2ccc(F)cc2C2=C1SCC1(CCN(C(=O)Oc3cccc(C(F)(F)F)c3)CC1)O2 [Compound 100, 3-(trifluoromethyl)phenyl 9-fluoro-5,6-dioxo-5,6-dihydro-1′H-spiro[naphtho[1,2-b][1,4]oxathiine-2,4′-piperidine]-1′-carboxylate] | 5.67 µM | 5.0 |  |  |  |  |  |  | 
1.31 µM | 6.02 µM | 1.66 µM | 2.02 µM | 1.45 µM | O=C1C(=O)c2ccccc2C2=C1SCC1(CCN(CC3CC3)CC1)O2 [Compound 122, 1′-(cyclopropylmethyl)spiro[naphtho[1,2-b][1,4]oxathiine-2,4′-piperidine]-5,6-dione] | 3.37 µM | 2.0 |  |  |  |  |  |  | 
